The text below walks through data of patent publication US7820665B2, “Imidazopyridazine inhibitors of PI3 kinase for cancer treatment” (Amgen Inc., priority 2007, dated 2010).

The structures appear in SMILES notation.

Test [1] concerns Akt phosphorylation at Ser473 in HCT116 cells. Put plainly: Cell-based phospho-AKT Ser473 assay (HCT116 Cell), MSD sandwich immunoassay.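 Also: IGF-1 added at 100 ng/mL for 15 min after compound treatment, electrochemiluminescent readout of phospho-Akt, DMSO-only wells define maximum signal, IC50 reflects inhibition of phosphorylation.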 Conditions: Homo sapiens, HCT-116, 2 h, read-out: HCT116 Cell IC50, HCT116 cells, 2 h compound, IGF-1 stimulation, pAkt Ser473.
Description: This assay determines the ability of a compound to inhibit the phosphorylation of Serine 472 in Akt using a MSD based sandwich immunoassay (Meso Scale Detection, Meso Scale Discovery (MSD), Gaithersburg, Md.). HCT116 human colon carcinoma cell lines can be grown in McCoy's 5A growth medium (GIBCO, Carlsbad, Calif.) containing 10% FBS (GIBCO, Carlsbad, Calif.) and X1 Penicillin-streptomycin-glutamine (GIBCO, Carlsbad, Calif.). Prior to the assay, cells can be detached from the culture flask with trypsin, and re-suspended in complete media to give a final concentration of 1.6×10^5 cells per mL. Aliquots (100 μl) of the HCT116 cell suspension can be seeded into each well of a 96 well tissue culture plate to give a final density of 16,000 cells per well. Cells can then be incubated overnight at 37° C.
The following day the cells can be treated with serially diluted test compounds and incubated for 2 hours at 37° C. The culture media on the HCT 116 cells can be replaced with 189 μL McCoys media, supplemented with 0.1% BSA (ICN Biomedicals, Inc., Costa Mesa, Calif.). […] Aliquots (1 μL) of serially-diluted compounds can be transferred to 96 well tissue culture plates containing the HCT 116 cells. […] As a maximum response control, wells can contain 0.5% DMSO in place of compound. The plates can be mixed at 700 rpm for 2 min to ensure even distribution of the test compound and incubated for 2 hours at 37° C. Cells can then be stimulated with insulin-like growth factor 1 (Sigma, St Louis, Mo.) at final concentration of 100 ng/mL for 15 minutes at 37° C. The media can then be removed and the cells treated with 80 μL cell-lysis buffer (MSD) containing a cocktail of protease and phosphatase inhibitors for one hour at 4° C.
25 μL Cell lysate can then be transferred to pre-blocked MSD assay plates pre-coated with a capture antibody specific for Akt, and the plates can be incubated for 2 hours at room temperature. The cell lysates can then be removed and plates can then be washed four times with 200 μl per well of Tris wash buffer (500 mM Tris, PH 7.5, 1.5 M NaCl, 0.2% Tween-20). Subsequently cells can be incubated for 1 hour at room temperature with a 25 μL solution containing the detection antibody, anti-phospho Akt (Ser 473) labeled with an electrochemiluminescent compound (Meso Scale Discovery SULPHO-TAG™ label, MSD, Gaithersburg, Md.). The detection antibody can be removed and plates can then be washed four times with 200 μL per well of Tris wash buffer. An aliquot of 150 μL of diluted MSD read buffer can then be applied to each well, and the electrochemiluminescent signal can be measured using a MSD SECTOR™ plate reader (Meso Scale Discovery, Gaithersburg, Md.). This instrument measures the intensity of emitted light to determine a quantitative measure of phosphorylated Akt in each well. The dose-response data obtained with each compound can be analyzed and the IC50 inhibition of Akt phosphorylation at Ser473 can be calculated.
For another test, the target named is T1, PI3Kα (Homo sapiens, UniProt P42336).
T1 construct: Full length p110 subunits of PI3K α, β and δ, N-terminally labeled with polyHis tag; polyHis (N); made in house; host or cells: Sf9 insect cells (baculovirus)
Description: In vitro PI3 kinase enzyme assay (PI3K ATPLoss). Conditions: recombinant p110α/p85, residual ATP by bioluminescence. Type of test: biochemical. The protocol:
Full length p110 subunits of PI3K α, β and δ, N-terminally labeled with polyHis tag, can be co-expressed with p85 with Baculo virus expression vectors in sf9 insect cells. P110/p85 heterodimers can be purified by sequential Ni-NTA, Q-HP, Superdex-100 chromatography. Purified α, β and δ isozymes can be stored at −20° C. in 20 mM Tris, pH 8, 0.2M NaCl, 50% glycerol, 5 mM DTT, 2 mM Na cholate. Truncated PI3Kγ, residues 114-1102, N-terminally labeled with polyHis tag, can be expressed with Baculo virus in Hi5 insect cells. The γ isozyme can be purified by sequential Ni-NTA, Superdex-200, Q-HP chromatography. The γ isozyme can be stored frozen at −80° C. in NaH2PO4, pH 8, 0.2M NaCl, 1% ethylene glycol, 2 mM β-mercaptoethanol.
PI3K enzyme assays (alpha, beta, delta and gamma) can be performed in 25 μL with the above final concentrations of components in white polyproplyene plates. Phosphatidyl inositol phosphoacceptor, PtdIns(4,5)P2 (e.g. P4508) can be obtained from Echelon Biosciences, Salt Lake City, Utah. The ATPase activity of the alpha and gamma isozymes may not be greatly stimulated by PtdIns(4,5)P2 under these conditions, it can be omitted from the assay of these isozymes. Test compounds can be dissolved in DMSO and diluted with three-fold serial dilutions. The compound in DMSO (1 μL) may be added per test well, and the inhibition relative to reactions containing no compound, with and without enzyme can be determined. After assay incubation at RT, the reaction can be stopped and residual ATP can be determined by addition of an equal volume of a commercial ATP bioluminescence kit (Perkin Elmer EasyLite, Perkin Elmer, Waltham, Mass.) according to the manufacturer's instructions, and detected using an Analyst GT luminometer.

The subject of test [2] is phosphorylation of Akt at Serine 473 in U87 MG cells. Put plainly: pAkt AlphaScreen (U87 Cell). Type of test: cell-based. The settings on record: Homo sapiens, U-87 MG, 2 h, 2 h compound, pAkt Ser473 AlphaScreen. The protocol:
The pAkt AlphaScreen® assay (PerkinElmer, Waltham, Mass.) determines whether there is phosphorylation of Akt at Serine 473 by recruitment of a phosphospecific antibody. This assay was performed using U87 MG cells. The U87 growth media consists of MEM (Gibco, Carlsbad, Calif.) supplemented with 10% FBS (Gibco), 1× Non-Essential Amino Acids (Gibco) and 1× Penicillin/Streptomycin/Glutamine (Gibco). The cells were maintained weekly using 0.05% Trypsin (Gibco) and replated in 150 mm TC-Treated Culture Dishes (Corning, Corning, N.Y.).
The first day of the assay, the adherent cells were trypsinized, media was added to the loose cells and cells were mixed to a homogenous mixture. 0.5 ml of the homogenous mixture was counted on the Beckman Coulter® Vi-CELL™ XR (Fullerton, Calif.). 50 frames of cells were counted and the number of viable cells was determined. The cells were then diluted to 0.25 million cells per ml, and centrifuged at 200 rcf for 5 minutes. The media was removed and the cells were reconstituted in fresh media for plating. The cells were plated at 20 μl per well on the PerkinElmer® Flexprop PLUS in Low Volume 384 Well White Tissue Culture Plates (Corning) with a final cell density of 5K cells per well. The plates were incubated overnight at 37° Celsius, 5% CO2.
On the second day, the compound plates were prepared, the cells were treated with compound and the pAkt reaction mix was added to the cell lysate. 384 well compound plates were prepared containing 1 μl of compound per well starting at 5 mM and diluted 1:2 across the row, resulting in a 22 well serial dilution. 39 μl of growth media was added to the compound plate in rows 1-22 using the PerkinElmer® FlexDrop PLUS resulting in a DMSO concentration of 2.5%. The cell plates and diluted compound plates were put onto the VELOCITY11™ VPREP™ 384 ST where the compound plate was mixed and 5 μl of serially diluted compound or controls was added to the cell plate. The final concentration of the compounds was 25 μM serially diluted to 11.9 pM in 0.5% DMSO. The cell plates were then incubated with compound for two hours at 37° Celsius, 5% CO2. After two hours, the media in the cell plates was aspirated using the BioTek® ELx405HT plate washer (Winooski, Vt.) removing the majority of media and compound without disturbing the adherent U87 cells. The following assay reagents are components of the SureFire® Akt (Ser 473) Phosphorylation 50K Point Kit (TGR BioSciences, Adelaide, Australia) and an IgG Detection Kit (PerkinElmer, Waltham, Mass.). 5 μl of 1× Lysis Buffer was added to each well using the PerkinElmer® FlexDrop PLUS. The plates were then incubated at room temperature on a shaker for ten minutes. The AlphaScreen® reaction was prepared under low light conditions (subdued or green light) including p-Akt (Ser 473) Reaction Buffer, Dilution Buffer, Activation Buffer, Acceptor Beads and Donor Beads at a ratio of 40:20:10:1:1 respectively. The AlphaScreen® reaction was added to the cell lysate at 6 μl per well using the PerkinElmer® FlexDrop PLUS. The plates were placed in a humid environment to reduce edge effects and incubated overnight at room temperature with restricted air flow in the dark.
On the final day of the experiment, the plates were read on the PerkinElmer® EnVision™ 2103 Multilable Reader using the standard AlphaScreen® readout. The POC is calculated and the data is analyzed to report the IC50 IP for pAkt at Serine 473.
For orientation: Bead proximity is the source of the signal in Alpha formats.

T1 sequence (P42336 whole entry, species assumed): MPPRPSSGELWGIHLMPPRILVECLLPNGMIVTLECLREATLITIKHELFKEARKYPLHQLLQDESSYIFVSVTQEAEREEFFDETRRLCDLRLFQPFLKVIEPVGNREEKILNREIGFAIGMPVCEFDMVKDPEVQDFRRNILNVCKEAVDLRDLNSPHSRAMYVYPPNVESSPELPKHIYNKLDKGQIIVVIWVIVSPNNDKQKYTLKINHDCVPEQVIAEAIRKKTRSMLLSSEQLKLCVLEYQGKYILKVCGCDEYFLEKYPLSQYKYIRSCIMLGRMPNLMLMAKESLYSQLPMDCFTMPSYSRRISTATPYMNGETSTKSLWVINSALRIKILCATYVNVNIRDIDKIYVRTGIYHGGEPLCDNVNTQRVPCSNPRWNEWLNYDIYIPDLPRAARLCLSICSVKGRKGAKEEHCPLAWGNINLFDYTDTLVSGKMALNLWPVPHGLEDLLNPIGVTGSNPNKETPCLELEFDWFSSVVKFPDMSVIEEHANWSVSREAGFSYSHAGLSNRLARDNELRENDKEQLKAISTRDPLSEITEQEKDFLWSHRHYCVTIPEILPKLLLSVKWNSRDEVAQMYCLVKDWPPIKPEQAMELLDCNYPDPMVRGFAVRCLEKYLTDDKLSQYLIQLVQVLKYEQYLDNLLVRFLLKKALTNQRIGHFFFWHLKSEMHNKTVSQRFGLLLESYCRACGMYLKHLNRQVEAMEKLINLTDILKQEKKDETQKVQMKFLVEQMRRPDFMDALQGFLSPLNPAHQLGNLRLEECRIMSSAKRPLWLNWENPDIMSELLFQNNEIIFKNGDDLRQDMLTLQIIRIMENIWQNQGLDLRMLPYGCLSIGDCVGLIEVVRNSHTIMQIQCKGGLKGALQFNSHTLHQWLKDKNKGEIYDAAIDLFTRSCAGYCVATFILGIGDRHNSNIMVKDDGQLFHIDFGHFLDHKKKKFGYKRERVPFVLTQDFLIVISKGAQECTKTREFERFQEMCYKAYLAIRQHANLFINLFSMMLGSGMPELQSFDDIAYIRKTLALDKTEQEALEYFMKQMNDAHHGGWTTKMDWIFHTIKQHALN
T1 sequence (P27986 whole entry partner, species assumed): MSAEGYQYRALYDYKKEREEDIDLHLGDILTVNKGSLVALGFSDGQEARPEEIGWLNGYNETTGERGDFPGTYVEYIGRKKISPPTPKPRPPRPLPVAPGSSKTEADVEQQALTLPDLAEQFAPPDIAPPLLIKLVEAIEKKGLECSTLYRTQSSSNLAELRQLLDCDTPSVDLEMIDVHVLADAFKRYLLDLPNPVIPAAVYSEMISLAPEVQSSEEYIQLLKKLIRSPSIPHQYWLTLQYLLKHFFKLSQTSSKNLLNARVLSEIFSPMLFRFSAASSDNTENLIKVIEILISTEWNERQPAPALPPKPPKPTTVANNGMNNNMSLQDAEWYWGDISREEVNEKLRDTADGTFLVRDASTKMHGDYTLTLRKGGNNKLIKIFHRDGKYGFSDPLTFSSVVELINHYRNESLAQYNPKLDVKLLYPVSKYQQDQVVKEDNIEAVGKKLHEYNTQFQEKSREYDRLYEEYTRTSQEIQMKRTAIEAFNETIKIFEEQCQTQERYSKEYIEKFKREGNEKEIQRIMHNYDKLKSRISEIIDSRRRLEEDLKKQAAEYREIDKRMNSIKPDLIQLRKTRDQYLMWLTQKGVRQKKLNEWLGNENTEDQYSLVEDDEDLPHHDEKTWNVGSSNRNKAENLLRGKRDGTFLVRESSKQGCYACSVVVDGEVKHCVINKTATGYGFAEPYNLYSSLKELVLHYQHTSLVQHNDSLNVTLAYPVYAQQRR

As usually defined, the IC50 is the midpoint of a concentration-inhibition curve. With `CNC(C)c1ccc(S(=O)(=O)Nc2cc(-c3ccc4nc(NC(C)=O)cn4n3)cnc2Cl)cc1` (racemic) [Example 37, N-(6-(6-chloro-5-(4-(1-(methylamino)ethyl)phenylsulfonamido)pyridin-3-yl)imidazo[1,2-b]pyridazin-2-yl)acetamide], the figures for the IC50 (in test [1]; on PI3Kα) were 244 nM and 7 nM, respectively.

With `CC(=O)Nc1cn2nc(-c3cccc(NS(=O)(=O)c4ccc(C)cc4)c3)ccc2n1` [Example 1, N-(6-(3-(4-Methylphenylsulfonamido)phenyl)imidazo[1,2-b]pyridazin-2-yl)acetamide], the results for the IC50 (in test [1]; on PI3Kα) were 214 nM and 55 nM, respectively.

For `CC(=O)Nc1cn2nc(-c3cccc(N(C)S(=O)(=O)c4ccc(C)cc4)c3)ccc2n1` [Example 2, N-(6-(3-(N,4-Dimethylphenylsulfonamido)phenyl)imidazo[1,2-b]pyridazin-2-yl)acetamide], the IC50 worked out at 462 nM in test [1] and 98 nM on PI3Kα.

Take `CC(=O)Nc1cn2nc(-c3ccnc(Sc4ccccc4F)c3)ccc2n1` [Example 4, N-(6-(2-(2-Fluorophenylthio)pyridin-4-yl)imidazo[1,2-b]pyridazin-2-yl)acetamide]: the IC50 in test [1] stood at 1140 nM; on PI3Kα, 77 nM.

Take `CC(=O)Nc1cn2nc(-c3cccc(NS(=O)(=O)c4cccc5ccccc45)c3)ccc2n1` [Example 7, N-(6-(3-(Naphthalene-1-sulfonamido)phenyl)imidazo[1,2-b]pyridazin-2-yl)acetamide]: the figures for the IC50 (in test [1]; at PI3Kα) were 456 nM and 62 nM, respectively.

Consider `CSc1cncc(-c2ccc3nc(NC(C)=O)cn3n2)c1` [Example 8, N-(6-(5-(Methylthio)pyridin-3-yl)imidazo[1,2-b]pyridazin-2-yl)acetamide], for which the values for the IC50 (in test [1]; on PI3Kα) were 1200 nM and 60 nM, respectively.

On to `CC(=O)Nc1cn2nc(-c3cncc(S(C)(=O)=O)c3)ccc2n1` [Example 10, N-(6-(5-(Methylsulfonyl)pyridin-3-yl)imidazo[1,2-b]pyridazin-2-yl)acetamide], for which the IC50 came out at 869 nM in test [1] and 104 nM on PI3Kα.

Take `CC(=O)Nc1cn2nc(-c3cncc(NS(=O)(=O)c4ccc(F)cc4)c3)ccc2n1` [Example 11, N-(6-(5-(4-Fluorophenylsulfonamido)pyridin-3-yl)imidazo[1,2-b]pyridazin-2-yl)acetamide]: the IC50 in test [1] came out at 213 nM; on PI3Kα, 6 nM.

Regarding `COc1ccc(S(=O)(=O)N(C)c2nccc(-c3ccc4nc(NC(C)=O)cn4c3)n2)cc1` [Example 13, N-(6-(2-(4-Methoxy-N-methylphenylsulfonamido)pyrimidin-4-yl)H-imidazo[1,2-a]pyridin-2-yl)acetamide], the IC50 in test [1] worked out at 847 nM; at PI3Kα it was 146 nM.

With `CC(=O)Nc1cn2cc(-c3cncc(NS(=O)(=O)c4ccc(F)cc4)c3)ccc2n1` [Example 15, N-(6-(5-(4-Fluorophenylsulfonamido)pyridin-3-yl)H-imidazo[1,2-a]pyridin-2-yl)acetamide], the IC50 was 975 nM in test [1] and 10 nM at PI3Kα.

As to `CC(=O)Nc1cn2cc(-c3cncc(NS(=O)(=O)C4CC4)c3)ccc2n1` [Example 16, N-(6-(5-(Cyclopropanesulfonamido)pyridin-3-yl)H-imidazo[1,2-a]pyridin-2-yl)acetamide], the IC50 in test [1] came to 14400 nM; on PI3Kα, 19 nM.

With `CC(=O)Nc1cn2cc(-c3cncc(NS(C)(=O)=O)c3)ccc2n1` [Example 17, N-(6-(5-(Methylsulfonamido)pyridin-3-yl)H-imidazo[1,2-a]pyridin-2-yl)acetamide], the IC50 in test [1] was determined as 29300 nM; at PI3Kα, 37 nM.

Consider `CC(=O)Nc1nc2ccc(-c3cnc(Cl)c(NS(C)(=O)=O)c3)nn2c1-c1ccncc1` [Example 26, N-(6-(6-Chloro-5-(methylsulfonamido)pyridin-3-yl)-3-(pyridin-4-yl)imidazo[1,2-b]pyridazin-2-yl)acetamide], for which the IC50 on PI3Kα is 9 nM; in test [2] it was 6530 nM.

In the case of `CS(=O)(=O)Nc1cc(-c2ccc3nc(N)c(-c4ccncc4)n3n2)cnc1Cl` [Example 27, N-(5-(2-Amino-3-(pyridin-4-yl)imidazo[1,2-b]pyridazin-6-yl)-2-chloropyridin-3-yl)methanesulfonamide], the IC50 was found to be 154 nM on PI3Kα and 3500 nM in test [2].

As to `CC(=O)Nc1nc2cc(-c3cnc(Cl)c(NS(=O)(=O)c4ccc(F)cc4)c3)ccc2[nH]1` [Example 30, N-(5-(6-Chloro-5-(4-fluorophenylsulfonamido)pyridin-3-yl)-1H-benzo[d]imidazol-2-yl)acetamide], the values for the IC50 (in test [1]; at PI3Kα) were 1100 nM and 12 nM, respectively.

Take `Nc1nc2ccc(-c3cnc(Cl)c(NS(=O)(=O)c4ccc(F)cc4)c3)cc2n1-c1ccccn1` [Example 31, N-(5-(2-Amino-1-(pyridin-2-yl)-1H-benzo[d]imidazol-6-yl)-2-chloropyridin-3-yl)-4-fluorobenzenesulfonamide]: the IC50 in test [1] was found to be 868 nM; at PI3Kα, 8 nM.

Regarding `CC(=O)Nc1cn2nc(-c3cnc(Cl)c(NS(=O)(=O)c4ccc(C)cc4)c3)ccc2n1` [Example 42, N-(6-(6-Chloro-5-(4-methylphenylsulfonamido)pyridin-3-yl)imidazo[1,2-b]pyriadazin-2-yl)acetamide], the IC50 on PI3Kα is 6 nM; in test [2], 5 nM.

As to `COc1ccc(-c2ccc3nc(NC(C)=O)cn3n2)cc1OC` [Example 43, N-(6-(3,4-Dimethoxyphenyl)imidazo[1,2-b]pyridazin-2-yl)acetamide], the IC50 amounted to 44 nM on PI3Kα and 242 nM in test [2].

Consider `CC(=O)Nc1cn2nc(-c3cc(NS(=O)(=O)c4ccc(F)cc4)c(Cl)nn3)ccc2n1` [Example 52, N-(6-(6-Chloro-5-(4-fluorophenylsulfonamido)pyridazin-3-yl)imidazo[1,2-b]pyridazin-2-yl)acetamide], for which the IC50 on PI3Kα came out at 691 nM; in test [2], 523 nM.
